Earlier results on 10 molecules are cited in US7160060B1, “System and method of remediation of contaminants” (priority 2004, dated 2007).

The structures appear in SMILES notation.

The conditions of the first data set: select chlorinated organics (Table 1).
`C=CCl` [Vinyl Chloride]: the “SOLUBILITY IN WATER at 25° C.” value was 8,800 mg/L.

On to `ClC(Cl)=C(Cl)Cl` [Perchloroethylene], for which the “SOLUBILITY IN WATER at 25° C.” value is recorded as 150 mg/L.

Consider `ClC=C(Cl)Cl` [Trichloroethylene], for which the “SOLUBILITY IN WATER at 25° C.” value is 1,280 mg/L.

Staying with this data set, now noted: select polycyclic aromatic hydrocarbons (Table 3).
Regarding `c1ccc2c(c1)ccc1c3ccccc3ccc21` [Chrysene], the “SOLUBILITY IN WATER at 25° C.” value is 0.00189 mg/L.

On to `c1ccc2c(c1)ccc1cc3c(ccc4ccccc43)cc12` [Dibenz(a,h)anthracene], for which the “SOLUBILITY IN WATER at 25° C.” value is on record as 0.0006 mg/L.

`c1cc2ccc3ccc4ccc5cccc6c(c1)c2c3c4c56` [Benzo(g,h,i)perylene]: the “SOLUBILITY IN WATER at 25° C.” value is listed as 0.00026 mg/L.

For `c1ccc2c(c1)ccc1ccccc12` [Phenanthrene], the “SOLUBILITY IN WATER at 25° C.” value is 1.18 mg/L.

Take `c1ccc2cc3ccccc3cc2c1` [Anthracene]: the “SOLUBILITY IN WATER at 25° C.” value was 0.075 mg/L.

As to `c1ccc2c(c1)cc1ccc3cccc4ccc2c1c34` [Benzo(a)pyrene], the “SOLUBILITY IN WATER at 25° C.” value is 0.0016 mg/L.

Staying with this data set, now noted: select volatile organic chemicals (BTEX) (Table 2).
Turning to `Cc1ccc(C)cc1` [p-xylene isomer, p-xylene], the “SOLUBILITY IN WATER at 25° C.” value was 198 mg/L.
